Measured values published in patent US8436028B2, “CETP inhibitors derived from benzoxazole arylamides” (Merck Sharp & Dohme Corp, priority 2007, dated 2013).

Target: T1, recombinant human CETP (Homo sapiens, UniProt P11597)
T1 construct: made in house; host or cells: CHO cells
T1 sequence (P11597 18-493): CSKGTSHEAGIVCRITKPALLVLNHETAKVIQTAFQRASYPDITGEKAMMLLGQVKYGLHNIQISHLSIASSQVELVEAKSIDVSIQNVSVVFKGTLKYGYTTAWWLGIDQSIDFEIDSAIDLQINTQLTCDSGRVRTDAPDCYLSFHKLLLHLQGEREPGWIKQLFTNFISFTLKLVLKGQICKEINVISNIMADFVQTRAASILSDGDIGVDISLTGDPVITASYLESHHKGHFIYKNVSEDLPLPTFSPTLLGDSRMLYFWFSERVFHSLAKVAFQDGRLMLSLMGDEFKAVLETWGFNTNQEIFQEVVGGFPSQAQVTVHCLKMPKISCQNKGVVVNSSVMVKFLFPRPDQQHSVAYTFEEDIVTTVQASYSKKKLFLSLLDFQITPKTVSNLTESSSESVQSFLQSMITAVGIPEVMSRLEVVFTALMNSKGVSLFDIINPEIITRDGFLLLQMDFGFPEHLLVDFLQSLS
Assay: CETP assay, CE transfer reaction (BODIPY-CE fluorescence, continuous)
Assay type: biochemical
Conditions: 3% human serum, 25° C., read-out: IC50 value as measured for the CE transfer reaction
Method: An in vitro continuous assay for determining IC50's to identify compounds that are CETP inhibitors was performed based on a modification of the method described by Epps et al. employing BODIPY®-CE as the cholesteryl ester lipid donor and BODIPY®-TG as the triglyceride lipid donor. See Epps et al. (1995) Method for measuring the activities of cholesteryl ester transfer protein (lipid transfer protein), Chem. Phys. Lipids. 77, 51-63.
Particles used in the assay were created from the following materials by probe sonication essentially as described by Epps et al. Synthetic cholesteryl ester (CE) donor HDL particles contained DOPC (Dioleoyl Phosphatidyl Choline), BODIPY®-CE (Molecular Probes C-3927), triolein (a triglyceride), dabcyl dicetylamide, (a non-diffusable quencher molecule to reduce background fluorescence) and apoHDL. Synthetic triglyceride (TG) donor HDL particles contained DOPC, BODIPY®-TG, and apoHDL. BODIPY®-TG was synthesized at room temperature from diolein and the BODIPY containing fatty acid analog 4,4-difluoro-5-(2-thienyl)-4-bora-3a,4a-diaza-s-indacene-3-dodecanoic acid (Molecular Probes) in methylene chloride in the presence of dicyclohexyl carbodimide. Dabcyl dicetylamide was made by heating dabcyl n-succinimide with dicetylamine in DMF at 95° C. overnight in the presence of diisopropylamine catalyst. Native lipoproteins from human blood were used as acceptor particles. Particles having a density less than 1.063 g/ml were collected by ultracentrifugation. These particles include VLDL, IDL, and LDL. Particle concentrations were expressed in terms of protein concentration as determined by BCA assay (Pierce, USA). Particles were stored at 4° C. until use.
Assays were performed in Dynex Microfluor 2 U-bottom black 96-well plates (Cat #7205). An assay cocktail containing CETP, 1×CETP buffer (50 mM Tris, pH 7.4, 100 mM NaCl, 1 mM EDTA), 3% human serum, and half the final concentration of acceptor particles was prepared, and 100 μL of the assay cocktail was added to each well of the plate. Test compounds in DMSO were added in a volume of […]. The plate was mixed on a plate shaker and then incubated at 25° C. for 1 hour. A second assay cocktail containing donor particles, the remaining acceptor particles and 1×CETP buffer was prepared. 47 μL of the second assay cocktail was added to the reaction wells to start the assay. Assays were performed in a final volume of 150 μL. CE transfer reactions were performed as follows: final concentrations of materials were: 2.5 ng/μL CE donor particles, 7.5 ng/μL acceptor particles (each expressed by protein content), 1×CETP buffer, 14-30 nM recombinant human CETP (expressed in CHO cells and partially purified), and up to 2% DMSO when testing compounds; reactions were followed in a fluorescence plate reader (Molecular Devices Spectramax GeminiXS) set for a 45 minute kinetic run at 25° C. which read the samples every 45 sec at Ex=480 nm, Em=511 nm, with a cutoff filter at 495 nm, photomultiplier tube setting of medium, calibration on, and 6 reads/well. TG transfer reactions were performed as described above with the exception that 2.5 ng/uL TG donor particles were used. TG transfer was measured at an excitation wavelength of 538 nm while reading emission at 568 nm every 45 sec for 45 min at 37° C. with a cutoff filter at 550 nm.
Data were evaluated by obtaining an initial rate, expressed in relative fluorescence units per second, for the pseudolinear portion of the curve, often 0-500 or 1000 sec. Comparison of the rates of samples with inhibitors to an uninhibited (DMSO only) positive control yielded a percent inhibition. A plot of percent inhibition vs. log of inhibitor concentration, fit to a Sigmoidal 4 parameter equation was used to calculate […].

| SMILES | IC50 |
| --- | --- |
| CC(C)c1cc(C#N)cc2nc(-c3ccc(C(=O)NC[C@H]4CC[C@H](CCOC(C)(C(F)(F)F)C(F)(F)F)CC4)cc3)oc12 [Example 45, 4-(5-Cyano-7-isopropyl-1,3-benzoxazol-2-yl)-N-[(trans-4-{2-[2,2,2-trifluoro-1-methyl-1-(trifluoromethyl)ethoxy]ethyl}cyclohexyl)methyl]benzamide] | 12 to 41 nM |
| CC(C)c1cc(C#N)cc2nc(-c3ccc(C(=O)NCC4(c5ccccc5)CCCCC4)cc3)oc12 [Example 48] | 12 to 41 nM |
| Cc1ccc2c(c1)cc(C1=CCC(CNC(=O)c3ccc(-c4nc5cc(C#N)cc(C(C)C)c5o4)cc3)CC1)n2C(=O)OC(C)(C)C (stereo not shown) [Example 76] | 12 to 41 nM |
| CC(C)c1cc(C#N)cc2nc(-c3ccc(C(=O)NC[C@H]4CC[C@H](c5cc6ccccc6n5C)CC4)cc3)oc12 [Example 81] | 12 to 41 nM |
| CC(C)c1cc(C#N)cc2nc(-c3ccc(C(=O)NC[C@H]4CC[C@H](c5cc6ccccc6o5)CC4)cc3)oc12 [Example 82] | 12 to 41 nM |

Now from value to molecule:

| IC50 | SMILES |
| --- | --- |
| 12 to 41 nM | CC(C)c1cc(C#N)cc2nc(-c3ccc(C(=O)NC[C@H]4CC[C@H](CC(=O)Nc5cc(C(F)(F)F)ccn5)CC4)cc3)oc12 [Example 44, 4-(5-Cyano-7-isopropyl-1,3-benzoxazol-2-yl)-N-{[trans-4-(2-oxo-2-{[4-(trifluoromethyl)pyridin-2-yl]amino}ethyl)cyclohexyl]methyl}benzamide] |
| 12 to 41 nM | CC(C)c1cc(C#N)cc2nc(-c3ccc(C(=O)NCC4CC=C(Cc5ccc(C(F)(F)F)cc5)CC4)cc3)oc12 (stereo not shown) [Example 47, 4-(5-Cyano-7-isopropyl-1,3-benzoxazol-2-yl)-N-({4-[4-(trifluoromethyl)benzyl]cyclohex-3-en-1-yl}methyl)benzamide] |
| 12 to 41 nM | CC(C)c1cc(C#N)cc2nc(-c3ccc(C(=O)NC[C@H]4CC[C@H](c5ccc(C(F)(F)F)cc5)CC4)cc3)oc12 [Example 53] |
| 12 to 41 nM | CC(C)c1cc(C#N)cc2nc(-c3ccc(C(=O)NC[C@H]4CC[C@@H](c5ccc(C(C)(C)C)cc5)CC4)cc3)oc12 [Example 64] |
| 12 to 41 nM | CC(C)c1cc(C#N)cc2nc(-c3ccc(C(=O)NC[C@H]4CC[C@H](c5ccc(C(C)(C)C)cc5)CC4)cc3)oc12 [Example 65] |
